Measured values published in US9943504B2, “Arginine methyltransferase inhibitors and uses thereof” (Epizyme, Inc., priority 2013, dated 2018).

Test system: mono-methyl arginine in RKO cells
Assay: RKO Methylation Assay (In Cell Western)
Type: cell-based
Conditions: 72 hours, percent activation
Description: RKO adherent cells were purchased from ATCC (American Type Culture Collection), Manassas, Va., USA. DMEM/Glutamax medium, penicillin-streptomycin, heat inactivated fetal bovine serum, 0.05% trypsin and D-PBS were purchased from Life Technologies, Grand Island, N.Y., USA. Odyssey blocking buffer, 800CW goat anti-rabbit IgG (H+L) antibody, and Licor Odyssey infrared scanner were purchased from Licor Biosciences, Lincoln, Nebr., USA. Mono-methyl arginine antibody was purchased from Cell Signaling Technology, Danvers, Mass., USA. Methanol was purchased from VWR, Franklin, Mass., USA. 10% Tween 20 was purchased from KPL, Inc., Gaithersburg, Md., USA. DRAQ5 was purchased from Biostatus Limited, Leicestershire, UK.
RKO adherent cells were maintained in growth medium (DMEM/Glutamax medium supplemented with 10% v/v heat inactivated fetal bovine serum and 100 units/mL penicillin-streptomycin) and cultured at 37° C. under 5% CO2.
Cell Treatment, in Cell Western (ICW) for Detection of Mono-Methyl Arginine and DNA Content.
RKO cells were seeded in assay medium at a concentration of 20,000 cells per mL to a poly-D-lysine coated 384 well culture plate (BD Biosciences 356697) with 50 μL per well. Compound (100 nL) from a 96-well source plate was added directly to 384 well cell plate. Plates were incubated at 37° C., 5% CO2 for 72 hours. After three days of incubation, plates were brought to room temperature outside of the incubator for ten minutes and blotted on paper towels to remove cell media. 50 μL of ice cold 100% methanol was added directly to each well and incubated for 30 min at room temperature. After 30 min, plates were transferred to a Biotek EL406 plate washer and washed 2 times with 100 μL per well of wash buffer (1×PBS). Next 60 μL per well of Odyssey blocking buffer (Odyssey Buffer with 0.1% Tween 20 (v/v)) were added to each plate and incubated 1 hour at room temperature. Blocking buffer was removed and 20 μL per well of primary antibody was added (mono-methyl arginine diluted 1:200 in Odyssey buffer with 0.1% Tween 20 (v/v)) and plates were incubated overnight (16 hours) at 4° C. Plates were washed 5 times with 100 μL per well of wash buffer. Next 20 μL per well of secondary antibody was added (1:200 800CW goat anti-rabbit IgG (H+L) antibody, 1:1000 DRAQ5 (Biostatus limited) in Odyssey buffer with 0.1% Tween 20 (v/v)) and incubated for 1 hour at room temperature. The plates were washed 5 times with 100 μL per well wash buffer then 2 times with 100 μL per well of water. Plates were allowed to dry at room temperature then imaged on the Licor Odyssey machine which measures integrated intensity at 700 nm and 800 nm wavelengths. Both 700 and 800 channels were scanned.
First, the ratio for each well was determined by:
Each plate included fourteen control wells of DMSO only treatment (minimum activation) as well as fourteen control wells for maximum activation treated with 20 μM of a reference compound. The average of the ratio values for each control type was calculated and used to determine the percent activation for each test well in the plate. Reference compound was serially diluted three-fold in DMSO for a total of nine test concentrations, beginning at 20 μM. Percent activation was determined and EC30 curves were generated using triplicate wells per concentration of compound.

Q: With `CC(C)COc1ccc2[nH]nc(CN(C)CCN)c2c1` [Compound 2, N^1-((5-iso-butoxy-1H-indazol-3-yl)methyl)-N^1-methylethane-1,2-diamine] as the molecule, how does the “RGG ICW EC30” value read?
A: The value was “B (“B” indicates an EC30 of 3.01-12.00 μM)”.

Q: With `CNCCN(C)Cc1nn(C)c2ccc(OCC(C)C)cc12` [Compound 3, N^1-((5-iso-butoxy-1-methyl-1H-indazol-3-yl)methyl)-N^1,N^2-dimethylethane-1,2-diamine] as the molecule, how does the “RGG ICW EC30” value read?
A: Its value is “C (“C” indicates an EC30 ≥ 12.01 μM)”.

Q: `CNCCN(C)Cc1n[nH]c2ccc(OC(C)C(C)C)cc12` (centres unmarked) [Compound 4] was tested. Which “RGG ICW EC30” value did it give?
A: Its value is “A (“A” indicates an EC30 ≤ 3.00 μM)”.

Q: `CNCCN(C)Cc1n[nH]c2ccc(OCCOC)cc12` [Compound 5, N^1-((5-(2-methoxyethoxy)-1H-indazol-3-yl)methyl)-N^1,N^2-dimethylethane-1,2-diamine] was tested. Which “RGG ICW EC30” value did it give?
A: Its value is “B (“B” indicates an EC30 of 3.01-12.00 μM)”.

Q: How did the “RGG ICW EC30” value turn out when `CNCCN(C)Cc1n[nH]c2ccc(OCCCOC)cc12` [Compound 6] was run?
A: The value was “A (“A” indicates an EC30 ≤ 3.00 μM)”.

Q: `CNCCN(C)Cc1n[nH]c2ccc(OCCc3ccccc3)cc12` [Compound 7] was tested. Which “RGG ICW EC30” value did it give?
A: Its value is “A (“A” indicates an EC30 ≤ 3.00 μM)”.

Q: With `CNCCN(C)Cc1n[nH]c2ccc(OCCC(C)C)cc12` [Compound 8] as the molecule, how does the “RGG ICW EC30” value read?
A: Its value is “A (“A” indicates an EC30 ≤ 3.00 μM)”.

Q: How did the “RGG ICW EC30” value turn out when `CNCCN(C)Cc1n[nH]c2ccc(OC(C)Cc3ccccc3)cc12` (centres unmarked) [Compound 9] was run?
A: Its value is “B (“B” indicates an EC30 of 3.01-12.00 μM)”.

Q: With `CNCCN(C)Cc1n[nH]c2ccc(Oc3ccccc3)cc12` [Compound 10, N^1,N^2-dimethyl-N^1-((5-phenoxy-1H-indazol-3-yl)methyl)ethane-1,2-diamine] as the molecule, how does the “RGG ICW EC30” value read?
A: The value was “B (“B” indicates an EC30 of 3.01-12.00 μM)”.

Q: For `CNCCN(C)Cc1n[nH]c2ccc(OC3CCCC3)cc12` [Compound 11], which “RGG ICW EC30” value is on record?
A: Its value is “A (“A” indicates an EC30 ≤ 3.00 μM)”.

Q: Which “RGG ICW EC30” value does the source give for `CNCCN(C)Cc1n[nH]c2ccc(OCc3ccccn3)cc12` [Compound 12] here?
A: The value was “B (“B” indicates an EC30 of 3.01-12.00 μM)”.

Q: Which “RGG ICW EC30” value does the source give for `CNCCN(C)Cc1n[nH]c2ccc(OCc3ccc(C#N)cc3)cc12` [Compound 13] here?
A: The value was “B (“B” indicates an EC30 of 3.01-12.00 μM)”.

Q: `CNCCN(C)Cc1n[nH]c2ccc(OCc3cccc(C#N)c3)cc12` [Compound 14] was tested. Which “RGG ICW EC30” value did it give?
A: Its value is “B (“B” indicates an EC30 of 3.01-12.00 μM)”.

Q: Which “RGG ICW EC30” value does the source give for `CNCCN(C)Cc1n[nH]c2ccc(OCc3cc[nH]n3)cc12` [Compound 17] here?
A: Its value is “C (“C” indicates an EC30 ≥ 12.01 μM)”.
